Reference: patent publication US11744825B2, “Methods of treating hypersensitive cough or itching using ion channel inhibitory compounds” (AFASCI, Inc., priority 2018, dated 2023)
Values joined by “and” are separate entries in the source; they are usually repeats but may differ in a detail not shown here. Identical values can stand only once. “Also recorded” adds a separate entry of the source.

Tests used:
IK in rat DRG = assay: Inhibition of IK current in dissociated rat DRG neurons; type: cell-based; conditions: for IC50: rat DRG neurons, read-out: Inhibition of Currents in rat DRG: IK IC50; for K/T: ratio of IK IC50 to T-type IC50
Description: (§1) A representative panel of AFA/EX compounds was investigated on a variety of recombinant human ion channels expressed in mammalian cells and on native ion channels in dissociated rat dorsal root ganglion (DRG) neurons. […] Thus, this panel of compounds was next investigated on their effects on itching scratching behavior in two well-established itching models in mice.

INa in rat DRG = assay: Inhibition of INa current in dissociated rat DRG neurons; type: cell-based; conditions: for IC50: rat DRG neurons, read-out: Inhibition of Currents in rat DRG: INa IC50; for Na/T: ratio of INa IC50 to T-type IC50
Description: as §1

[1] = tested on: histamine-induced itching; assay: Histamine-induced itching (neck model of itch) in mice; type: in vivo, mouse; conditions: 30 mg/kg i.p., 30 min before pruritogen
Procedure: (§2) Neck model of itch was employed. Mice (C57BL/6, male, 3-4 months old) were shaved at the nape of the neck 2-3 days before experiments. On the day of behavioral testing mice were individually placed in small plastic chambers (12 cm L×9.5 W×12 H) that inserted into an ordinary homecage at least 30 min for habituation and recorded baseline of behavior using a video camera and a piezoelectric floor sensor operated by a validated homecage behavioral monitory system, SmartCage, which can monitor multiple mouse scratching behaviors simultaneously. Treatment with an individual test article (10 representative AFA-compounds, each at 30 mg/kg) or vehicle (0.5% hydroxyl propyl cellulose aqueous solution containing 2% DMSO) were intraperitoneally (i.p.) injected 30 min prior to itching induction. Mice were given an intradermal injection of 50 μl of a pruritogen, chloroquine or histamine into the nape of the neck. Immediately after the injection, mice were returned to their chambers and were continually recorded by the piezoelectric floor sensor for 30 min. Human manual scoring of itching scratch behavior in real-time and confirmed by video and/or piezoelectric recordings offline. The itch behavior was quantified by counting the number of scratches in a blinded to the treatment manner. A scratch was counted when a mouse lifted its hindpaw to scratch the shaved region and returned the paw to the floor or to the mouth for licking. The piezoelectric signals with a larger and regular waveform distinguished from normal homecage activity were analyzed off-line to objectively quantifying scratch episodes and durations.

[2] = target: T1, hERG potassium (K+) channels (Homo sapiens, UniProt Q12809); assay: hERG potassium channel inhibition; type: cell-based
T1 construct: expressed in transfected cells
T1 sequence (Q12809 whole entry): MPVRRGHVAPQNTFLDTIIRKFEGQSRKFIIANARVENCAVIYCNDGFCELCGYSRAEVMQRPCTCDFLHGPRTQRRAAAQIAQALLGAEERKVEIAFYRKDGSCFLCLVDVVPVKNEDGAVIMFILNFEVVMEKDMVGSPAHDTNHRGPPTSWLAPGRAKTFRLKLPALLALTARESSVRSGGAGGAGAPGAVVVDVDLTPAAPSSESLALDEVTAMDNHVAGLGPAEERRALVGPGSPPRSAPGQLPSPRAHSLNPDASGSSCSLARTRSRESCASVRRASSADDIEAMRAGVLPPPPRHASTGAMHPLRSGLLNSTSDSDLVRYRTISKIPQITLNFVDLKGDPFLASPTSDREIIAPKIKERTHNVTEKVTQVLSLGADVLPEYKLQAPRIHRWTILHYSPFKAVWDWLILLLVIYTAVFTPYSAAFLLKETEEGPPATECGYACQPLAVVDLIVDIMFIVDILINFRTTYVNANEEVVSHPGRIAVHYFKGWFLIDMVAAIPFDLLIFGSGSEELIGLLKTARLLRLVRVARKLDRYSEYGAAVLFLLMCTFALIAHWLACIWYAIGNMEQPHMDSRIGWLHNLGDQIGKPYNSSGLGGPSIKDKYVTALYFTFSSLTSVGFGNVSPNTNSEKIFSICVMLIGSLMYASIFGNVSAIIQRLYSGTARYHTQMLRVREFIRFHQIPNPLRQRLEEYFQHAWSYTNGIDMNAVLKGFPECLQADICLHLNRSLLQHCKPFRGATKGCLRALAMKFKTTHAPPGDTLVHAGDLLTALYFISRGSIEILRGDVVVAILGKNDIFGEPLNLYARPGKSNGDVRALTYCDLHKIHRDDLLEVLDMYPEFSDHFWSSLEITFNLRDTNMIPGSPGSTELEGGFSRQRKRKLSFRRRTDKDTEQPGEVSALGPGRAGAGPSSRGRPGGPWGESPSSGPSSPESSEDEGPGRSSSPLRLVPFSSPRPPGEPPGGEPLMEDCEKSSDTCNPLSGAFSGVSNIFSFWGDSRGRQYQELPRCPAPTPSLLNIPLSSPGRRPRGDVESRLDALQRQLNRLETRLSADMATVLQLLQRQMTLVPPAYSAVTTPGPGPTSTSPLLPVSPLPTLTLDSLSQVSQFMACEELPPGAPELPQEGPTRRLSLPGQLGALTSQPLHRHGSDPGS
Description: as §1

hCav3.2 Channel = target: T2, hCav3.2 Channel (Homo sapiens, UniProt O95180); assay: Recombinant hCav3.2 channel expressed in mammalian cells; type: cell-based; set-up: hCav3.2 Channel % Use Dep. (use dependent inhibition): concentration or dose not given beside the values
T2 construct: expressed in transfected cells
Description: as §1

hCav2.2 = hCav2.2 (Homo sapiens, UniProt Q00975); assay: Recombinant hCav2.2 channel expressed in mammalian cells; type: cell-based; conditions: for IC50: recombinant human channel
hCav2.2, sequence (Q00975 whole entry): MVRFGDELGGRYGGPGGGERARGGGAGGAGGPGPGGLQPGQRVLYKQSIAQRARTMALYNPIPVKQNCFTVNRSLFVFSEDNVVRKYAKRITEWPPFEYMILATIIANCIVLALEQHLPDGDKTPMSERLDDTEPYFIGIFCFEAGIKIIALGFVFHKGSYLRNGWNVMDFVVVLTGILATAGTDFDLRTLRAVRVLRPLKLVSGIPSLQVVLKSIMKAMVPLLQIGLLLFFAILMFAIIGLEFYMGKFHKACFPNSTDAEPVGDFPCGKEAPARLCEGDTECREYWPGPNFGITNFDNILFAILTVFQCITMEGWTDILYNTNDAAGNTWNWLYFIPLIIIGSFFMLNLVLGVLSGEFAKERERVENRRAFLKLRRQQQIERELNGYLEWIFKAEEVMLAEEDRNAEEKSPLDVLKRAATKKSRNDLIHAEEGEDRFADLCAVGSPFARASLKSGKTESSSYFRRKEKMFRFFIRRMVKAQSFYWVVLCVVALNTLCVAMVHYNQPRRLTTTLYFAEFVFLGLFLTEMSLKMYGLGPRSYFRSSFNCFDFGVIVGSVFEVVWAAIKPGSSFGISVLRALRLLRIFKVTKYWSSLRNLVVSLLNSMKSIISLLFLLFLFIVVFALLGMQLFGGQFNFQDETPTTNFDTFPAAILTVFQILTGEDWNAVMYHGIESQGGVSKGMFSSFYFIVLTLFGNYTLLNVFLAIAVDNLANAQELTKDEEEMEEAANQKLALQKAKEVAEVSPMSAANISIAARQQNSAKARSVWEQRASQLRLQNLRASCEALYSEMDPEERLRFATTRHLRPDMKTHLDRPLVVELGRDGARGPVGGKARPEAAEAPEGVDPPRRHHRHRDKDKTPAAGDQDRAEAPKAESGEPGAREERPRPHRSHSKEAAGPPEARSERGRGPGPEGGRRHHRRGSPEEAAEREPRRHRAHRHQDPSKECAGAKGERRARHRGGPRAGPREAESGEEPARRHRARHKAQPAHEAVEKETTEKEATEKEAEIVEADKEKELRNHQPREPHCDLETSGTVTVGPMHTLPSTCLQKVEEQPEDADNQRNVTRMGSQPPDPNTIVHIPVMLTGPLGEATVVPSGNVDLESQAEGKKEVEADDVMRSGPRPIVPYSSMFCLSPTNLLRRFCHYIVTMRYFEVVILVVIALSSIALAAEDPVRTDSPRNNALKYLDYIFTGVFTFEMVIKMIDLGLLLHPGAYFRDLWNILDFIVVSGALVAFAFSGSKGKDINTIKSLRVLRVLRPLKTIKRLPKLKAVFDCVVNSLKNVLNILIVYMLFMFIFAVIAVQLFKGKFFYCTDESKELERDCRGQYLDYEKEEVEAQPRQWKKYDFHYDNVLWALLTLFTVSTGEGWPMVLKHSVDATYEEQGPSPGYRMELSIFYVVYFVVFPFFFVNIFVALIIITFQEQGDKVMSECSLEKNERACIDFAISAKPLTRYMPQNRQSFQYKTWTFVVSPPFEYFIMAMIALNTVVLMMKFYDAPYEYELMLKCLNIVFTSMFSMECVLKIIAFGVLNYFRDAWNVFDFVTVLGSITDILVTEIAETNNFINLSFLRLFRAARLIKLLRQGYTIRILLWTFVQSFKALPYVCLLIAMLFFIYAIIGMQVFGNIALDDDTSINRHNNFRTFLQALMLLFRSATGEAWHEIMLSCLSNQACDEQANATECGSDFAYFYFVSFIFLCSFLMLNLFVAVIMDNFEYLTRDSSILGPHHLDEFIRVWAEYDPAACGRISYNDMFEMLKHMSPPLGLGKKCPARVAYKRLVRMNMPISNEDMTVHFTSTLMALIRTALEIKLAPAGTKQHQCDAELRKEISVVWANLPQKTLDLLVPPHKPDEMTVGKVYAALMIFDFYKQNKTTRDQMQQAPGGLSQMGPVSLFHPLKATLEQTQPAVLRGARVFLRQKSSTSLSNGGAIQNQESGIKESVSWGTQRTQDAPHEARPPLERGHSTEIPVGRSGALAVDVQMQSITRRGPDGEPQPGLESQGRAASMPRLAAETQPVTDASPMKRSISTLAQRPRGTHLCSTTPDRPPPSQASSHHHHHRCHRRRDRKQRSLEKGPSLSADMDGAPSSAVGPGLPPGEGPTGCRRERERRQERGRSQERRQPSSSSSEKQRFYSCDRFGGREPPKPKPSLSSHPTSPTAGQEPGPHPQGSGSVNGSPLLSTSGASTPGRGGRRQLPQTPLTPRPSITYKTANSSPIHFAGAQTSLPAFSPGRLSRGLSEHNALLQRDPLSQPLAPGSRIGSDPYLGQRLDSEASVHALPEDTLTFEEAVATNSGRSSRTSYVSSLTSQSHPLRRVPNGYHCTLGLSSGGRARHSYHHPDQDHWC
hCav2.2, sequence (P54284 whole entry partner): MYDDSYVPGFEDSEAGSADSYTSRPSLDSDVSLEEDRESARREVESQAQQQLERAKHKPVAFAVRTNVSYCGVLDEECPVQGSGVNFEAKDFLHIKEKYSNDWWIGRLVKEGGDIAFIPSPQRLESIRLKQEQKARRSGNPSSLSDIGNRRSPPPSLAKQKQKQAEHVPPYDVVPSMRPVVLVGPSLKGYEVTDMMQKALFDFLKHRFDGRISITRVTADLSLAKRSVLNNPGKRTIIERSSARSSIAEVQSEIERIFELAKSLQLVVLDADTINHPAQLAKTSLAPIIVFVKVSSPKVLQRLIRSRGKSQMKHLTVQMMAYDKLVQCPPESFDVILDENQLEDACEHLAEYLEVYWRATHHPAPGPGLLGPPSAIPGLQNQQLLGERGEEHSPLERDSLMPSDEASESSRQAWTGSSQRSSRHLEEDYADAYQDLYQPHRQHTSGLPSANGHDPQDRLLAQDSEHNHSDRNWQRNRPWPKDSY
hCav2.2, sequence (P54289 25-956 partner limits assumed): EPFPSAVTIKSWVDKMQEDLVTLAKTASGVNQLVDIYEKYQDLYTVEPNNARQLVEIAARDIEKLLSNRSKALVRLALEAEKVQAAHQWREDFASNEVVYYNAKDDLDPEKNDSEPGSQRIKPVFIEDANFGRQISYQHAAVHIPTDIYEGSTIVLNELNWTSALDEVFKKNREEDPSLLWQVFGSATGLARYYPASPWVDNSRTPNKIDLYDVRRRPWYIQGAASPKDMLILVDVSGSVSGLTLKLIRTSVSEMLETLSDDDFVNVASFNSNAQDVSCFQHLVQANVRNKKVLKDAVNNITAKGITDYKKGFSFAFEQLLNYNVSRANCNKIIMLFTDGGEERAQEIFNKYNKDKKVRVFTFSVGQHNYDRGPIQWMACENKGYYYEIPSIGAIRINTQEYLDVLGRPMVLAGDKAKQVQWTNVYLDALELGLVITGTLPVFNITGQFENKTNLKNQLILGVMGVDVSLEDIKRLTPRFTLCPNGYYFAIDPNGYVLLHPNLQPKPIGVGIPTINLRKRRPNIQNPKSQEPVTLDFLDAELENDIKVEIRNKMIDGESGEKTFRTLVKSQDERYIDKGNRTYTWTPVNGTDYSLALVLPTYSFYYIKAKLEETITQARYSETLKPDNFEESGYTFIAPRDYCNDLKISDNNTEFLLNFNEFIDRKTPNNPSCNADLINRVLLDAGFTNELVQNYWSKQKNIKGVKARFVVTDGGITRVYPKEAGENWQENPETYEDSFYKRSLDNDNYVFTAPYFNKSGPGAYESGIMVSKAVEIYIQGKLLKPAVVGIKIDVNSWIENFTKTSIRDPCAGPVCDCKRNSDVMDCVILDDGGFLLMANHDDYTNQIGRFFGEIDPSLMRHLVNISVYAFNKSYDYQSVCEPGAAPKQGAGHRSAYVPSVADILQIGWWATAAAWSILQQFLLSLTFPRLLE
hCav2.2, sequence (P54289 957-1103 partner limits assumed): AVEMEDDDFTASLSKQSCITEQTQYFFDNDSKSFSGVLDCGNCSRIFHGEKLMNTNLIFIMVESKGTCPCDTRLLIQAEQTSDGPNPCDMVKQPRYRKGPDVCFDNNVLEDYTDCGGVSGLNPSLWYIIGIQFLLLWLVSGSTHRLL
Description: as §1

[3] = tested on: chloroquine-induced itching; assay: Chloroquine-induced itching (neck model of itch) in mice; type: in vivo, mouse; conditions: 30 mg/kg i.p., 30 min before pruritogen
Procedure: as §2

hiPSC INa = hiPSC INa current; type: cell-based, human
hCav1.2 = hCav1.2 (Homo sapiens, UniProt Q13936); assay: Recombinant hCav1.2 channel expressed in mammalian cells; type: cell-based
Description: as §1

T current in rat DRG = target: T3, T current in rat DRG (Rattus norvegicus, UniProt Q9EQ60); assay: Inhibition of T current in dissociated rat DRG neurons; type: cell-based; conditions: read-out: Inhibition of Currents in rat DRG: T IC50
T3 construct: native ion channels in dissociated rat dorsal root ganglion (DRG) neurons; from tissue; host or cells: dissociated rat dorsal root ganglion neurons
Description: as §1

hNav1.5 = hNav1.5 (Homo sapiens, UniProt Q14524); assay: Recombinant hNav1.5 channel expressed in mammalian cells; type: cell-based
Description: as §1

[4] = tested on: citric acid-induced cough; assay: Citric acid-induced cough in naive, conscious guinea pigs; type: in vivo, guinea pig; conditions: for reduction of the number of cough events: guinea pig
Procedure: Guinea pigs (male, 280 g body weight, Hartley Crl:HA, Charles River) were maintained in temperature 21±2° C., humidity 55±10%, 12 hours on-12 hours off light cycle, with food and water ad libitum for at least 1 week before testing. Cough was induced with citric acid aerosol inhalation and cough assessment by human manual score (Gallico, Borghi et al. 1994). Individual animals were placed in a 4 L plexiglas observation chambers continuously filled with 17.5% citric acid aerosol. Animal cough counts were recorded for 5 min. Coughs can be recognized on the basis of sound associated with a rapid inspiration followed by a rapid expiration. Only the animal with cough counts >=10 times/5 min was selected for experiment. The selected animal was then randomized divided into 5 groups, n=8/group. Five days after screening test, the representative AFA-compound, EX-17 at 0, 3, 10 and 30 mg/kg were administered 30 minutes while the benchmark dextromethorphan hydrobromide (60 mg/kg, p.o.) 60 minutes prior to the citric acid inhalation, based on their PK profiles. […] The latency to the first cough has been used as an additional parameter to evaluate antitussive property.
Using the same test protocol, three more representative EX-compounds EX-128, -130 and -132 (each 30 mg/kg, p.o.) or vehicle were tested by orally administering 30 minutes while dextromethorphan hydrobromide (60 mg/kg, p.o.) 60 minutes prior to the citric acid inhalation, based on their PK profiles. […] The latencies to the first cough were increased with three compounds and the benchmark (FIG. 2B).

T-type Ca2+ current = conditions: Avdonin et al., 2000; cited from earlier work
[5] = 30 mg/kg p.o., 30 min before citric acid
[6] = 30 mg/kg p.o., vs vehicle-treated control

| Compound | IC50 (IK in rat DRG) [µM] | K/T (IK in rat DRG) | IC50 (INa in rat DRG) [µM] | Na/T (INa in rat DRG) | inhibition of histamine-induced itching scratching behavior [1] | hERG % at 1 μM [2] [% at] | IC50 (hCav3.2 Channel) [µM] | hCav3.2 Channel % Use Dep. (use dependent inhibition) (hCav3.2 Channel) [%] | inhibition of chloroquine-induced itching scratching behavior [3] | IC50 (hiPSC INa) [µM] | IC50 (hCav2.2) [µM] | IC50 (T current in rat DRG) [µM] | IC50 (hNav1.5) [µM] | reduction of the number of cough events [4, 5] [%] | latency to the first cough [4, 6] | IC50 [2] [µM] | also measured |
| --- | --- | --- | --- | --- | --- | --- | --- | --- | --- | --- | --- | --- | --- | --- | --- | --- | --- |
| CC(C)(C)CCN1CCC2(CC1)CC2N(CC1CC1)C(=O)c1cc(Cl)cc(Cl)c1 (stereo not shown) [AFA-206] | 6.8 | 102 | 20.3 | 303 | preferentially inhibited histamine-induced itching | 50 | 0.067 | 8.2 |  |  |  |  |  |  |  |  |  |
| CC(C)(C)CCN1CCC2(CC1)CC2NC(=O)Cc1cc(C(F)(F)F)cc(C(F)(F)F)c1 (stereo not shown) [AFA-221] | ~30 | 357 | 3.6 | 43 | potent and equal efficacy | 31 | 0.084 | 28.3 | potent and equal efficacy |  |  |  |  |  |  |  | hCav2.2 % at 3 μM (hCav2.2; at 3 μM): 47% at; inhibition of histamine-induced itching scratching behavior ([1]; listed as EX-31): effective; inhibition of chloroquine-induced itching scratching behavior ([3]; listed as EX-31): effective |
| CC(C)(C)NC(=O)CN1CCC(CNC(=O)c2cc(F)cc(Cl)c2)CC1 [AFA-258, reference compound] | > 100 | >513 | > 100 | >513 |  |  | 0.195 | 17.6 | did not produce anti-itching effects | 21.4 | > 30 | 0.2 | > 100 |  |  |  | IC50 (hCav1.2): > 30 µM |
| CC(C)(C)NC(=O)CN1CCC2(CC1)CC2NC(=O)c1cc(F)cc(Cl)c1 (stereo not shown) [AFA-279] | > 100 | >1115 | > 100 | >1115 | did not produce anti-itching effects |  | 0.113 | 21.3 | did not produce anti-itching effects | 83.5 | > 10 | 0.19 | 76.4 | 39.1 | trend of increasing the latency, but not reaching significant difference | 6.7 |  |
| CC(C)(C)NC(=O)CN1CCC2(CC1)CC2NC(=O)c1cc(F)cc(C(F)(F)F)c1 (stereo not shown) [AFA-281] | > 100 | >557 | > 100 | >557 | potent and equal efficacy |  | 0.179 | 13.9 | potent and equal efficacy | 31.4 | > 30 | 0.6 | > 100 | 33 | trend of increasing the latency, but not reaching significant difference | 8 | inhibition of histamine-induced itching scratching behavior ([1]; listed as EX-130): effective; inhibition of chloroquine-induced itching scratching behavior ([3]; listed as EX-130): effective |
| CC(C)(C)NC(=O)CN1CCC2(CC1)C[C@H]2NC(=O)C12CC3CC(CC(C3)C1)C2 [AFA-309] | > 30 | >212 | > 30 | >212 | preferentially inhibited histamine-induced itching |  | 0.141 | 4.2 |  |  | 15.6 |  | 25.8 |  |  | > 30 | hiPSC INa % at 3 μM (hiPSC INa; at 3 μM): 0% at; IC50 (hCav1.2): > 30 µM |
| CC(C)(C)NC(=O)CN1CCC2(CC1)CC2C(=O)Nc1cc(C(F)(F)F)cc(C(F)(F)F)c1 (stereo not shown) [AFA-322] | > 100 | >723 | 14.3 | 103 | preferentially inhibited histamine-induced itching |  | 0.138 | 25.6 |  | 51.6 | 3.09 | 0.15 | 23.5 | 15.7 | trend of increasing the latency, but not reaching significant difference | 9.2 |  |
| C[C@H]1CN(S(=O)(=O)c2ccc(C(F)(F)F)cc2)CCN1C(=O)c1ccc2cccnc2c1 [AFA-353] | > 100 | >10 | > 100 | >10 |  | 23 | 10.4 |  |  |  | 8.87 |  |  |  |  |  |  |
| O=C(NC1CC12CCN(S(=O)(=O)c1ccc(C(F)(F)F)cc1)CC2)c1cc(C(F)(F)F)cc(C(F)(F)F)c1 (stereo not shown) [AFA-358] | > 30 | >30 | > 30 | >30 | effective; also recorded: potent and equal efficacy | 59 | 1.01 |  | effective; also recorded: potent and equal efficacy |  | 0.74 |  |  |  |  |  |  |
| CC(C)(C)NC(=O)CN1CCC2(CC1)CC2NC(=O)c1ccc(Cl)cc1F (stereo not shown) [EX-17] |  |  |  |  |  |  |  |  |  |  |  |  |  | 36.8 | reached significance; also recorded: significant increases |  | reduction of the number of cough events ([4]; 3 mg/kg p.o., 30 min before citric acid): 7.2%; reduction of the number of cough events ([4]; 10 mg/kg p.o., 30 min before citric acid): 23.3%; latency to the first cough ([4]; p.o., EX compounds 3-30 mg/kg, dextromethorphan 60 mg/kg): increases in the latencies of the first cough in a dose-dependent manner |
| COc1ccc2c(c1)[C@]13CCCC[C@@H]1[C@H](C2)N(C)CC3 [dextromethorphan, reference compound] |  |  |  |  |  |  |  |  |  |  |  |  |  |  |  |  | reduction of the number of cough events ([4]; 60 mg/kg p.o., 60 min before citric acid): 40.0% and 42.6%; latency to the first cough ([4]; 60 mg/kg p.o., vs vehicle-treated control): significant increases; also recorded: trend of increasing the latency, but not reaching significant difference; latency to the first cough ([4]; 60 mg/kg p.o., vs vehicle-treated control, listed as dextromethorphan hydrobromide): reached significance |
| COCC(=O)O[C@]1(CCN(C)CCCc2nc3ccccc3[nH]2)CCc2cc(F)ccc2[C@@H]1C(C)C [mibefradil] |  |  |  |  |  |  |  |  |  |  |  |  |  |  |  |  | more potent inhibition of the T-type than of the L-type Ca2+ current or the voltage-gated Na+ current (T-type Ca2+ current): 3-10 times |
